In patent US9326511B2, “Methods of inhibiting microbial biofilms” (priority 2008, dated 2016):
≈ marks a conversion by molar mass, not a printed value. Entries after “also recorded” stand apart in the source; their conditions may differ. Read-outs that look alike come from different tables or passages of the source. Marks after values point to notes of the source that are not given here.

Assays:
[1] = test system: E. coli cells; assay: Binding of compounds with bacterial cells (spectrofluorimetric analysis of cell lysates); details: 5 min incubation
Description: […] At the end of the incubation period, the cells were sedimented by centrifugation to remove the fraction of unbound test compound and the cell pellet was resuspended in 2 ml of 2% SDS to obtain cell lysates. After overnight incubation with SDS, the amount of cell-bound test compound was estimated by spectrofluorimetric analysis of the cell lysates. The concentration of the compounds in the cell lysates was calculated by measuring the intensities at the maximum of the emission fluorescence spectrum and interpolating the data on a calibration plot. The amount of cell-bound test compound was expressed as nmoles of compound per mg of cell protein. The protein concentration was determined by the method of Lowry (Lowry et al., 1951, J. Biol. Chem. 193:265-275).
All experiments were run in triplicate and the results represent the average of 3 determinations with standard deviations.

[2] = Chemical stability, qualitative stress tests (HPLC, LC-MS); format: physicochemical; details: solid, aqueous solution, PBS, 7 days each at 50, 70 and 90° C.
Description: The following HPLC methodology was established for the analysis of the exemplary compounds of the invention.
The method involves detection by UV at a wavelength of 420 nm, which is very specific for these compounds. In order to monitor impurities not related to the porphyrin structure (and therefore not absorbing at 420 nm) UV spectra of the whole chromatograms were also recorded between 200 nm and 700 nm by DAD (diode array detector) in certain experiments. • Column: Zorbax Phenyl, 250×4.6 mm, 5 µm • Eluent A: 1.5 g sodium dodecylsulfate+1 mL formic acid in 1000 mL water • Eluent B: 1.5 g sodium dodecylsulfate+1 mL formic acid in 200 mL water+800 mL tetrahydrofurane • Gradient:
• Flow rate: 0.4 mL/min • Detection: 420 nm • Column temperature: 25° C. • Injection volume: 10 μl • Solutions: Porphyrin derivatives were dissolved in eluent A to give a final concentration of approximately 0.3 mg/ml.
Qualitative stress tests were undertaken on the exemplary compounds of the invention. Analysis was undertaken by HPLC & LC-MS. The compounds were stress tested in solid form, in an aqueous solution and a solution made up in phosphate-buffered saline buffer. The samples were initially incubated for 7 days at 50° C. and a sample removed for testing. The samples were then incubated for a further 7 days at 70° C., samples removed as before and the samples incubated further for 7 days at 90° C. HPLC analysis of freshly prepared solutions was undertaken and compared to the samples after 7, 14 and 21 days incubation. A visual comparison of the chromatograms was then undertaken and the content of the main products and by-products as area percentage values determined (see FIG. 4).

[3] = test system: S. aureus SH1000; assay: Planktonic MIC by broth microdilution (BSAC guidelines); format: cell-based, Staphylococcus aureus
Description: (§1) Methods: MICs were determined for planktonic cultures by broth microdilution according to British Society for Antimicrobial Chemotherapy (BSAC) guidelines. Biofilm MICs (bMIC) and minimum biofilm eradication concentrations (MBECs) were determined using the Calgary biofilm device. The effect of Compound 10 on the viability of cold culture cells was determined by growing S. aureus SH1000 to early exponential phase at 37° C. and resuspending the cells in pre-chilled media, where they were maintained in the presence and absence of Compound 10 and control agents. The effect of Compound 10 on slow growing cells expressing the stringent response was also determined by growing cultures to early log phase and the stringent response induced by the addition of the isoleucyl-tRNA synthetase inhibitor mupirocin. Compound 10 and control agents were then added and samples recovered for viable cell determinations.

[4] = test system: S. aureus SH1000 biofilms; assay: Biofilm MIC and minimum biofilm eradication concentration, Calgary Biofilm Device; format: cell-based, Staphylococcus aureus; details: Staphylococcus aureus, SH1000BIOFILMS, read-out: bMIC
Description: as §1
Biofilm MICs and minimum biofilm eradication concentrations (MBEC) were determined in the Calgary Biofilm Device (Nunc Inc, Roskilde, Denmark) as described by Miller et al., 2005. This involves the following steps. Aliquots (200 μL) of exponential phase cultures of strain SH1000 were added to each well of a 96-well microtitre tray. The lid assembly, which has 96 polystyrene pegs corresponding to each well, was then replaced and the system incubated for 24 hours at 37° C. on a rocking platform. Following this a biofilm of approximately 10^7 cfu matured on each peg. The lid was then washed twice in phosphate-buffered saline (PBS) to remove residual planktonic growth and then placed into a microtitre tray with fresh media containing doubling dilutions of the test antibiotic. The system was then incubated for 24 hours at 37° C. on a rocking platform. The MIC was defined as the lowest concentration of antibiotic completely inhibiting visible growth after this incubation. After the MIC was recorded, the lid assembly was again washed twice in PBS to remove planktonic cells and remaining antibiotic and then placed into fresh drug-free media. The system was incubated for a further 24 hours and the MBEC was defined as the lowest concentration of antibiotic completely inhibiting the re-establishment of planktonic growth.

[5] = test system: stringent S. aureus SH1000 cultures; assay: Time-kill against cultures expressing the stringent response (induced with mupirocin); format: cell-based, Staphylococcus aureus; details: stringent response induced with mupirocin, agents at 4×MIC
Description: as §1
When nutrients become limiting for growth bacteria adjust their metabolism from one that supports growth to one that provides for long survival in the absence of nutrients. In many bacteria a key facilitator of this physiological switch, known as the stringent response, is accumulation of guanosine […] and pentaphosphate (Traxler et al., 2008). The antibiotic mupirocin is a strong inducer of the stringent response in S. aureus and effectively causes starvation of charged isoleucyl tRNA by potent inhibition of isoleucy ItRNA synthetase (IRS) (Oliva et al., 2003). The activity of XF drugs against S. aureus SH1000 prevented from growing by the addition of mupirocin (Oliva et al., 2003), was therefore examined (FIG. 10). As an alternative method for arresting growth, bacteria were suspended in cold growth medium (Mascio et al., 2007) and the bactericidal activity of XF drugs was also determined under these conditions (FIG. 11).
(§2) The anti-staphylococcal activities of Compound 10, Compound 12 and a range of comparator agents against slow-growing cultures of Staphylococcus aureus were studied using standard time-kill methodology (Oliva et al. 2003, Hobbs et al. 2008). Staphylococcus aureus SH1000 cultures were grown to early exponential phase (OD600 nm of 0.2) in Mueller-Hinton broth (MHB) before being exposed to antibacterial agents at 4×MIC. An untreated culture served as the negative control. The experiments were undertaken in triplicate.
The antibiotic mupirocin is a strong inducer of the stringent response in S. aureus and causes starvation of charged isoleucyl tRNA by potent inhibition of isoleucyl tRNA synthetase (IRS) (Oliva et al. 2003, Cassels et al. 1995) Stringency was induced in SH1000 cultures by adding mupirocin (4 mg/L) to cells in the early exponential growth phase (OD600 nm of 0.2) (Oliva et al. 2003, Cassels et al. 1995). Cultures were incubated with mupirocin for 30 minutes before sampling began. Cultures were maintained at 37° C., and samples were taken at 30 minute intervals for 300 minutes, serially diluted in phosphate buffered saline (PBS) and diluted culture was spread on Mueller-Hinton agar and was incubated at 37° C. for 18-24 hours before the number of CFU were counted.

[6] = test system: S. aureus SH1000 cold cultures; assay: Time-kill against cold cultures (4° C.); format: cell-based, Staphylococcus aureus; details: cold culture held at 4° C. for 5 hours, agents at 4×MIC
Description: as §1
The effect of XF drugs on the viability of cold culture cells was determined by growing S. aureus SH1000 to early exponential phase at 37° C., harvesting the cells by centrifugation (5,000×g, 10 min.) and resuspending them in pre-chilled media where they were maintained in the presence and absence of XF drugs and control agents for 5 hours. […] (FIG. 11).
as §2
Cold cultures were prepared by growing SH1000 cells to early exponential phase (OD600 nm of 0.2) at 37° C. Cultures were then centrifuged and the cell pellet was resuspended in MHB pre-chilled to 4° C. The killing kinetics of antimicrobial agents were studied as described in the section above, with the exception that cultures were maintained at 4° C. over the 5 hour sampling period.

[7] = test system: S. aureus 8325-4; details: previous studies (Oliva et al., 2003); cited from earlier work
[8] = test system: staphylococci; details: cited from earlier work; for MIC Values: literature value (Critchley et al. 2003)
[9] = planktonic S. aureus SH1000 (Table 6)

Structure (SMILES): CN(C)CCC[N+](C)(C)CCCOc1ccc(-c2c3nc(cc4ccc([nH]4)c(-c4ccc(OCCC[N+](C)(C)CCCN(C)C)cc4)c4nc(cc5ccc2[nH]5)C=C4)C=C3)cc1.[Cl-].[Cl-] [Compound 8, 5,15-bis-(4-{3-[(3-Dimethylamino-propyl)-dimethyl-ammonio]-propyloxy}-phenyl)-porphyrin dichloride]
- Bound compound ([1]; 0.01 μM compound, 0 washings): 0.024 ± 0.01 nmoles/mg cell proteins
- Bound compound ([1]; 0.01 μM compound, 3 washings): 0.009 ± 0.001 nmoles/mg cell proteins
- Bound compound ([1]; 0.1 μM compound, 0 washings): 0.056 ± 0.02 nmoles/mg cell proteins
- Bound compound ([1]; 0.1 μM compound, 3 washings): 0.030 ± 0.02 nmoles/mg cell proteins
- Bound compound ([1]; 0.5 μM compound, 0 washings): 0.522 ± 0.2 nmoles/mg cell proteins
- Bound compound ([1]; 0.5 μM compound, 3 washings): 0.274 ± 0.15 nmoles/mg cell proteins
- Bound compound ([1]; 1 μM compound, 0 washings): 3.670 ± 0.7 nmoles/mg cell proteins
- Bound compound ([1]; 1 μM compound, 3 washings): 2.230 ± 0.8 nmoles/mg cell proteins
- Chemical stability under stress [2]: less stable than Compounds 10 and 12

Structure (SMILES): C[C@@H]1O[C@@H]1P(=O)(O)O [Fosfomycin]
- MIC ([3]; Staphylococcus aureus, planktonic S. aureus SH1000 (Table 5), read-out: MIC): 16 µg/mL (≈ 116 µM)
- MIC [3, 9]: 16 µg/mL (≈ 116 µM)
- MIC ([4]; 24 h, biofilm MIC, S. aureus SH1000, Calgary Biofilm Device, 24 hours (Table 6)): 8 µg/mL (≈ 57.9 µM)
- MIC ([4]; biofilm MIC, S. aureus SH1000, Calgary device (Example H)): 8 µg/mL (≈ 57.9 µM)
- viability / bactericidal activity in time-kill (in words) [5]: no loss of viability; also recorded: completely attenuated
- viability / bactericidal activity in time-kill (in words) [6]: no loss of viability
- effect of the stringent response on bactericidal activity [7]: completely abolishes the bactericidal activity

Structure (SMILES): CC(=O)NC[C@H]1CN(c2ccc(N3CCOCC3)c(F)c2)C(=O)O1 [Zyvox ® (Linezolid), Linezolid]
- MIC Values [8]: 4^a μg/mL

Structure (SMILES): CN[C@H](CC(C)C)C(=O)N[C@H]1C(=O)N[C@@H](CC(N)=O)C(=O)N[C@H]2C(=O)N[C@H]3C(=O)N[C@H](C(=O)N[C@H](C(=O)O)c4cc(O)cc(O)c4-c4cc3ccc4O)[C@H](O)c3ccc(c(Cl)c3)Oc3cc2cc(c3O[C@@H]2O[C@H](CO)[C@@H](O)[C@H](O)[C@H]2O[C@H]2C[C@](C)(N)[C@H](O)[C@H](C)O2)Oc2ccc(cc2Cl)[C@H]1O [Vancomycin]
- MIC ([3]; Staphylococcus aureus, SH1000): 1 µg/mL (≈ 0.69 µM)
- MIC [3, 9]: 1 µg/mL (≈ 0.69 µM)
- MIC ([4]; 24 h): 2 µg/mL (≈ 1.38 µM)
- MIC [4]: 2 µg/mL (≈ 1.38 µM)
- viability / bactericidal activity in time-kill (in words) [5]: no loss of viability
- viability / bactericidal activity in time-kill (in words) [6]: no loss of viability; also recorded: abolished
- MBC Values ([8]; literature value (Biavasco et al. 1997; Fuchs et al. 2002)): 4-16^b μg/mL
- MIC Values [8]: 1^a μg/mL
- effect of the stringent response on bactericidal activity [7]: completely abolishes the bactericidal activity

Structure (SMILES): N[C@@H]1CON=C1O [cycloserine]
- effect of the stringent response on bactericidal activity [7]: completely abolishes the bactericidal activity
